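Compound exposure: 48 hours, 5 concentrations, 96-well plates. TGI: concentration producing complete growth inhibition.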
Tests used:
Test in all cases: DTP human tumour cell line panel, 48 h
[1] = test system: EKVX NSCLC
[2] = test system: NCI-H23 lung
[3] = test system: HCC-2998 colon
[4] = test system: HL-60(TB) leukemia
[5] = test system: NCI-H460 lung
[6] = test system: SW-620 colon
[7] = test system: HOP-62 NSCLC
[8] = test system: HCT-15 colon
[9] = test system: KM12 colon
[10] = test system: HOP-18 NSCLC
[11] = test system: U251 CNS
[12] = test system: OVCAR-8 ovarian
[13] = test system: OVCAR-5 ovarian
[14] = test system: DMS 114 small cell lung
[15] = test system: SF-268 CNS
[16] = test system: HT29 colon
[17] = test system: UACC-62 melanoma
[18] = test system: COLO 205 colon
[19] = test system: RPMI-8226 leukemia
[20] = test system: SN12C renal
[21] = test system: OVCAR-4 ovarian
[22] = test system: TK-10 renal
[23] = test system: HCT-116 colon
[24] = test system: IGROV1 ovarian
[25] = test system: SNB-19 CNS
[26] = test system: UACC-257 melanoma
[27] = test system: MOLT-4 leukemia
[28] = test system: K-562 leukemia
[29] = test system: ACHN renal
[30] = test system: KM20L2 colon
[31] = test system: SR leukemia
[32] = test system: SK-MEL-28 melanoma
[33] = test system: SK-MEL-2 melanoma
[34] = test system: LXFL 529 NSCLC
[35] = test system: RXF 393 renal
[36] = test system: M14 melanoma
[37] = test system: A549 NSCLC
[38] = test system: LOX IMVI melanoma
[39] = test system: SNB-75 CNS
[40] = test system: OVCAR-3 ovarian
[41] = test system: SNB-78 CNS
[42] = test system: SK-MEL-5 melanoma
[43] = test system: UO-31 renal
[44] = test system: HOP-92 NSCLC
[45] = test system: SF-539 CNS
[46] = test system: M19-MEL melanoma
[47] = test system: CCRF-CEM leukemia
[48] = test system: DMS 273 small cell lung
[49] = test system: SF-295 CNS
[50] = test system: DLD-1 colon
[51] = test system: MALME-3M melanoma
[52] = test system: A498 renal
[53] = test system: NCI-H226 lung
[54] = test system: CAKI-1 renal
[55] = test system: SK-OV-3 ovarian
[56] = test system: NCI-H522 lung
[57] = test system: 786-0 renal

**Q.** What does the source list for `Nc1cc(-c2ccccc2)nn1-c1nsc2ccccc12`?
**A.** TGI [1]: > 100 µM; TGI [2]: > 100 µM; TGI [3]: > 100 µM; TGI [4]: > 100 µM; TGI [5]: > 100 µM; TGI [6]: > 100 µM; TGI [7]: > 100 µM; TGI [8]: > 100 µM; TGI [9]: > 100 µM; TGI [10]: > 100 µM; TGI [11]: > 100 µM; TGI [12]: > 100 µM; TGI [13]: > 100 µM; TGI [14]: > 100 µM; TGI [15]: > 100 µM; TGI [16]: > 100 µM; TGI [17]: > 100 µM; TGI [18]: > 100 µM; TGI [19]: > 100 µM; TGI [20]: > 100 µM; TGI [21]: > 100 µM; TGI [22]: > 100 µM; TGI [23]: > 100 µM; TGI [24]: > 100 µM; TGI [25]: > 100 µM; TGI [26]: > 100 µM; TGI [27]: > 100 µM; TGI [28]: > 100 µM; TGI [29]: > 100 µM; TGI [30]: > 100 µM; TGI [31]: > 100 µM; TGI [32]: > 100 µM; TGI [33]: > 100 µM; TGI [34]: > 100 µM; TGI [35]: 61.7 µM; TGI [36]: > 100 µM; TGI [37]: > 100 µM; TGI [38]: > 100 µM; TGI [39]: 56.9 µM; TGI [40]: > 100 µM; TGI [41]: > 100 µM; TGI [42]: > 100 µM; TGI [43]: > 100 µM; TGI [44]: > 100 µM; TGI [45]: > 100 µM; TGI [46]: > 100 µM; TGI [47]: 62.3 µM; TGI [48]: > 100 µM

**Q.** For `COc1ccc(C2=C3c4cc(OC)c(OC)cc4CCN3C(=S)SS2)cc1OC`, which TGI [1] is on record?
**A.** Its TGI is > 100 µM.

**Q.** What about the TGI [2] of the same compound?
**A.** Its TGI is > 100 µM.

**Q.** What about the TGI [3] of the same compound?
**A.** Its TGI is > 100 µM.

**Q.** What about the TGI [4] of the same compound?
**A.** The TGI was > 100 µM.

**Q.** And the TGI [5]?
**A.** The TGI was > 100 µM.

**Q.** And the TGI [49]?
**A.** Its TGI is > 100 µM.

**Q.** What about the TGI [6] of the same compound?
**A.** Its TGI is > 100 µM.

**Q.** And the TGI [50]?
**A.** The TGI was > 100 µM.

**Q.** And the TGI [51]?
**A.** Its TGI is 97.6 µM.

**Q.** What about the TGI [7] of the same compound?
**A.** The TGI was > 100 µM.

**Q.** What about the TGI [8] of the same compound?
**A.** Its TGI is > 100 µM.

**Q.** What about the TGI [9] of the same compound?
**A.** The TGI was > 100 µM.

**Q.** What about the TGI [10] of the same compound?
**A.** The TGI was > 100 µM.

**Q.** And the TGI [52]?
**A.** Its TGI is > 100 µM.

**Q.** And the TGI [11]?
**A.** Its TGI is > 100 µM.

**Q.** And the TGI [12]?
**A.** The TGI was > 100 µM.

**Q.** And the TGI [13]?
**A.** Its TGI is > 100 µM.

**Q.** What about the TGI [14] of the same compound?
**A.** Its TGI is > 100 µM.

**Q.** What about the TGI [15] of the same compound?
**A.** The TGI was > 100 µM.

**Q.** What about the TGI [16] of the same compound?
**A.** Its TGI is > 100 µM.

**Q.** And the TGI [53]?
**A.** Its TGI is > 100 µM.

**Q.** And the TGI [54]?
**A.** Its TGI is > 100 µM.

**Q.** And the TGI [17]?
**A.** Its TGI is > 100 µM.

**Q.** And the TGI [18]?
**A.** Its TGI is > 100 µM.

**Q.** And the TGI [19]?
**A.** Its TGI is > 100 µM.

**Q.** What about the TGI [20] of the same compound?
**A.** The TGI was > 100 µM.

**Q.** What about the TGI [21] of the same compound?
**A.** Its TGI is > 100 µM.

**Q.** What about the TGI [22] of the same compound?
**A.** The TGI was > 100 µM.

**Q.** What about the TGI [23] of the same compound?
**A.** The TGI was > 100 µM.

**Q.** What about the TGI [24] of the same compound?
**A.** The TGI was > 100 µM.

**Q.** What about the TGI [55] of the same compound?
**A.** Its TGI is > 100 µM.

**Q.** And the TGI [25]?
**A.** Its TGI is > 100 µM.

**Q.** What about the TGI [26] of the same compound?
**A.** The TGI was > 100 µM.

**Q.** And the TGI [27]?
**A.** The TGI was > 100 µM.

**Q.** What about the TGI [28] of the same compound?
**A.** The TGI was > 100 µM.

**Q.** What about the TGI [29] of the same compound?
**A.** Its TGI is > 100 µM.

**Q.** What about the TGI [30] of the same compound?
**A.** Its TGI is > 100 µM.

**Q.** What about the TGI [32] of the same compound?
**A.** Its TGI is > 100 µM.

**Q.** What about the TGI [33] of the same compound?
**A.** Its TGI is > 100 µM.

**Q.** What about the TGI [34] of the same compound?
**A.** The TGI was > 100 µM.

**Q.** What about the TGI [35] of the same compound?
**A.** The TGI was > 100 µM.

**Q.** And the TGI [36]?
**A.** The TGI was > 100 µM.

**Q.** What about the TGI [37] of the same compound?
**A.** Its TGI is > 100 µM.

**Q.** And the TGI [38]?
**A.** The TGI was > 100 µM.

**Q.** And the TGI [39]?
**A.** Its TGI is > 100 µM.

**Q.** What about the TGI [40] of the same compound?
**A.** Its TGI is > 100 µM.

**Q.** And the TGI [41]?
**A.** Its TGI is > 100 µM.

**Q.** And the TGI [42]?
**A.** The TGI was > 100 µM.

**Q.** What about the TGI [56] of the same compound?
**A.** The TGI was > 100 µM.

**Q.** And the TGI [57]?
**A.** Its TGI is > 100 µM.

**Q.** What about the TGI [43] of the same compound?
**A.** The TGI was > 100 µM.

**Q.** What about the TGI [44] of the same compound?
**A.** The TGI was > 100 µM.

**Q.** What about the TGI [45] of the same compound?
**A.** The TGI was > 100 µM.

**Q.** And the TGI [46]?
**A.** Its TGI is > 100 µM.

**Q.** What about the TGI [47] of the same compound?
**A.** Its TGI is > 100 µM.

**Q.** And the TGI [48]?
**A.** Its TGI is > 100 µM.

Source: PubChem BioAssay (NCI)
